How the values were obtained:
MRC5 = test: Cytotoxicity against human MRC5 cells after 48 hrs by MTT assay; type: cell-based; conditions: MRC5, 48 h
A549 [1] = test: Cytotoxicity against human A549 cells after 48 hrs by MTT assay; type: functional, cell-based; conditions: A549, 48 h
UACC-62 [2] = test: Cytotoxicity against human UACC62 cells after 48 hrs by MTT assay; type: functional, cell-based; conditions: UACC-62, 48 h
[3] = Cytotoxicity against human VH10 cells after 48 hrs by MTT assay; type: cell-based; conditions: VH10, 48 h
[4] = Cytotoxicity against human MRC5 cells assessed as cell survival at 10 to 320 uM after 48 hrs by MTT assay; type: cell-based; conditions: read-out: Survival
UACC-62 [5] = test: Cytotoxicity against human UACC62 cells assessed as cell viability at 1 mM after 48 hrs by MTT assay; type: functional; conditions: UACC-62, 48 h, read-out: Activity
[6] = Cytotoxicity against human VH10 cells at 1 mM after 48 hrs by MTT assay; type: cell-based; conditions: vh10, 48 h, 1000 µM
[7] = Cytotoxicity against human MCF10 cells assessed as cell survival at 264 uM after 48 hrs by MTT assay; type: cell-based; conditions: read-out: Survival
A549 [8] = test: Cytotoxicity against human A549 cells at 300 uM after 48 hrs by MTT assay; type: functional
MCF10 = test: Cytotoxicity against human MCF10 cells after 48 hrs by MTT assay; type: cell-based; conditions: MCF10, 48 h
MCF7 = test: Cytotoxicity against human MCF7 cells after 48 hrs by MTT assay; type: functional, cell-based; conditions: MCF7, 48 h

SMILES	IC50 (MRC5) [µM]	IC50 (A549 [1]) [µM]	other results
CCCCCCCCCCCCNCC(C)(CO[C@@H]1O[C@@H]2CO[C@H](c3ccccc3)O[C@@H]2[C@H](OCc2ccccc2)[C@H]1OCc1ccccc1)NS(=O)(=O)c1ccc(C)cc1 (stereo partly drawn)	156	492	
O=c1[nH]cc(F)c(=O)[nH]1 [FLUOROURACIL]			IC50 (UACC-62 [2]): 264 µM; IC50 [3]: > 1000 µM
Cc1ccc(S(=O)(=O)N2C(CO[C@@H]3O[C@@H]4CO[C@H](c5ccccc5)O[C@@H]4[C@H](O)[C@H]3O)C2(C)C)cc1 (stereo partly drawn)	567	389	
CCCC1(CO[C@@H]2O[C@@H]3CO[C@H](c4ccccc4)O[C@@H]3[C@H](OCc3ccccc3)[C@H]2OCc2ccccc2)CN1S(=O)(=O)c1ccc(C)cc1 (stereo partly drawn)	793	579	
CCCCCCCCCCCCCCC1(CO[C@@H]2O[C@@H]3CO[C@H](c4ccccc4)O[C@@H]3[C@H](OCc3ccccc3)[C@H]2OCc2ccccc2)CN1S(=O)(=O)c1ccc(C)cc1 (stereo partly drawn)	1000	1000	
Cc1ccc(S(=O)(=O)N2CC2CO[C@@H]2O[C@@H]3CO[C@H](c4ccccc4)O[C@@H]3[C@H](OCc3ccccc3)[C@H]2OCc2ccccc2)cc1 (stereo partly drawn)	183	73	viability at 48 h, up to 320 µM [4]: 90%
Cc1ccc(S(=O)(=O)N2CC2(CO[C@@H]2O[C@@H]3CO[C@H](c4ccccc4)O[C@@H]3[C@H](OCc3ccccc3)[C@H]2OCc2ccccc2)c2ccccc2)cc1 (stereo partly drawn)	570	599	
Cc1ccc(S(=O)(=O)N2CC2(C)CO[C@@H]2O[C@@H]3CO[C@H](c4ccccc4)O[C@@H]3[C@H](O)[C@H]2O)cc1 (stereo partly drawn)	312	154	
Cc1ccc(S(=O)(=O)N2C(C)C2CO[C@@H]2O[C@@H]3CO[C@H](c4ccccc4)O[C@@H]3[C@H](OCc3ccccc3)[C@H]2OCc2ccccc2)cc1 (stereo partly drawn)	> 1000	804	
Cc1ccc(S(=O)(=O)N2C(C)C2CO[C@@H]2O[C@@H]3CO[C@H](c4ccccc4)O[C@@H]3[C@H](O)[C@H]2O)cc1 (stereo partly drawn)	544	351	
CCCCCCCCCCCCCCC(CO[C@@H]1O[C@@H]2CO[C@H](c3ccccc3)O[C@@H]2[C@H](OCc2ccccc2)[C@H]1OCc1ccccc1)(CN1CCN(CCO)CC1)NS(=O)(=O)c1ccc(C)cc1 (stereo partly drawn)	2	15	
Cc1ccc(S(=O)(=O)N2CC2(C)CO[C@@H]2O[C@@H]3CO[C@H](c4ccccc4)O[C@@H]3[C@H](OCc3ccccc3)[C@H]2OCc2ccccc2)cc1 (stereo partly drawn)	> 1000	153	viability at 1000 µM (UACC-62 [5]): 10%; Activity [6]: Non-toxic; viability at 48 h, 264 µM [7]: 80%; Activity (A549 [8]): 30%; viability at 48 h, up to 320 µM [4]: 90%; IC50 (UACC-62 [2]): 196 µM; IC50 (MCF10): 567 µM; IC50 [3]: > 1000 µM; IC50 (MCF7): 12 µM
CCCCCCCC1C(CO[C@@H]2O[C@@H]3CO[C@H](c4ccccc4)O[C@@H]3[C@H](OCc3ccccc3)[C@H]2O)N1S(=O)(=O)c1ccc(C)cc1 (stereo partly drawn)	> 1000	235	viability at 48 h, up to 320 µM [4]: 90%
Cc1ccc(S(=O)(=O)N2C(CO[C@@H]3O[C@@H]4CO[C@H](c5ccccc5)O[C@@H]4[C@H](OCc4ccccc4)[C@H]3OCc3ccccc3)C2(C)C)cc1 (stereo partly drawn)	> 1000	> 1000	
CCCCCCCCCC1(CO[C@@H]2O[C@@H]3CO[C@H](c4ccccc4)O[C@@H]3[C@H](OCc3ccccc3)[C@H]2OCc2ccccc2)CN1S(=O)(=O)c1ccc(C)cc1 (stereo partly drawn)	575	154	Activity (A549 [8]): 30%; viability at 48 h, up to 320 µM [4]: 90%

— ChEMBL document CHEMBL3085740, “Aziridines from alkenyl-β-D-galactopyranoside derivatives: Stereoselective synthesis and in vitro selective anticancer activity” (Eur J Med Chem, 2013)
